Experimental data from ChEMBL document CHEMBL1131924, “Synthesis and biological evaluation of 1alpha,24-dihydroxy-25-nitrovitamin D3” (1999).

Key:
HL-60 = assay: Cell differentiation activity towards HL-60 cells assessed in terms of 4-nitro-blue tetrazolium (NBT) reactivity; assay type: functional, Homo sapiens
[1] = molecular target: T1, Vitamin D3 receptor (Gallus gallus) (UniProt O42392); assay: Relative binding affinity for chick intestinal Vitamin D3 receptor (VDR)
T1 sequence (whole entry): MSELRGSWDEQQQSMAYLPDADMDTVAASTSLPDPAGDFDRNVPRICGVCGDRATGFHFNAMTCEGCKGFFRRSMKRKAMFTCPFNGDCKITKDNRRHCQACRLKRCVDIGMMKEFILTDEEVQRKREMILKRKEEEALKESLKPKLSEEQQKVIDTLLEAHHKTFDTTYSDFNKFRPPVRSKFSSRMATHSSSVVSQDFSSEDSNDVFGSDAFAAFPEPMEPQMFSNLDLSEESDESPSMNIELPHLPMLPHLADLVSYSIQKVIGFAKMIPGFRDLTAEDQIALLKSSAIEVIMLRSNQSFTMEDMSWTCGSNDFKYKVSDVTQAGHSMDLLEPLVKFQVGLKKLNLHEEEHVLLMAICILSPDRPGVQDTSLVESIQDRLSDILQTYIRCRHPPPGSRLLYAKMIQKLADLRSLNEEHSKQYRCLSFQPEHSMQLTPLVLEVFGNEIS

Row | Binding affinity [1] | SMILES | Activity (HL-60)
1 | 10 | C=C1/C(=C\C=C2/CCC[C@]3(C)[C@@H]([C@H](C)CC[C@H](O)C(C)C)CC[C@@H]23)C[C@@H](O)C[C@@H]1O | 18
2 | 100 | C=C1/C(=C\C=C2/CCC[C@]3(C)[C@@H]([C@H](C)CCCC(C)(C)O)CC[C@@H]23)C[C@@H](O)C[C@@H]1O [CALCITRIOL] | 100
3 | 131 | C=C1/C(=C\C=C2/CCC[C@]3(C)[C@@H]([C@H](C)CC[C@@H](O)C(C)C)CC[C@@H]23)C[C@@H](O)C[C@@H]1O [TACALCITOL] | 182
4 | 93 | C=C1/C(=C\C=C2/CCC[C@]3(C)[C@@H]([C@H](C)CC[C@@H](O)C(C)(C)[N+](=O)[O-])CC[C@@H]23)C[C@@H](O)C[C@@H]1O | 182
5 | 10 | C=C1/C(=C\C=C2/CCC[C@]3(C)[C@@H]([C@H](C)CC[C@H](O)C(C)(C)[N+](=O)[O-])CC[C@@H]23)C[C@@H](O)C[C@@H]1O | 12
